Measured values reported in BindingDB's records for doi:10.1016/0960-894X(96)00231-4 (1996).
pEC50, pKi: −log10 of the molar value.

Tests used:
[1] = biological target: D(2) dopamine receptor (Rattus norvegicus) (UniProt P61169); experiment: Binding affinity at Dopamine D2 receptors in rat striatum by [3H]spiperone displacement.
[2] = Binding affinity at Dopamine D3 receptors in rat striatum by [3H]-spiperone displacement.
[3] = Stimulation of mitogenesis in Dopamine receptor D3 transfected CHO p-5 cells

Sequence of D(2) dopamine receptor (Rattus norvegicus) (P61169 whole entry, looked up): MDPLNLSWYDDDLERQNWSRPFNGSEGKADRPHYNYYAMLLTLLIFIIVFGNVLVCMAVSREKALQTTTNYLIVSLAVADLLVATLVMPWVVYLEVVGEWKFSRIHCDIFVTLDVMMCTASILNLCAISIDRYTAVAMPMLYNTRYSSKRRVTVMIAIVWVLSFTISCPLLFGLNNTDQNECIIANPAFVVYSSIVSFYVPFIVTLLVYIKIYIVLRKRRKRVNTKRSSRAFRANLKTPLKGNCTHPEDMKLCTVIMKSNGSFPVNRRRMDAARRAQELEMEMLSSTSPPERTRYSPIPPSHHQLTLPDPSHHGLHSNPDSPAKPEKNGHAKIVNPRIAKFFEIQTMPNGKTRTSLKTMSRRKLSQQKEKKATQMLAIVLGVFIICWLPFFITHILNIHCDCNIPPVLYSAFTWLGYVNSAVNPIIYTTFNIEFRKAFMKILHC

| SMILES | pKi [1] | pKi [2] | pEC50 [3] |
| --- | --- | --- | --- |
| O=C(NCCN1CCN(c2ccccc2)CC1)c1cc(Br)c2ccccc2c1O [4-Bromo-1-hydroxy-naphthalene-2-carboxylic acid [2-(4-phenyl-piperazin-1-yl)-ethyl]-amide] | < 5.00 | < 5.00 |  |
| COc1c(C(=O)NCCN2CCN(c3ccccc3)CC2)cc(C#N)c2ccccc12 [4-Cyano-1-methoxy-naphthalene-2-carboxylic acid [2-(4-phenyl-piperazin-1-yl)-ethyl]-amide] | 7.15 | 6.88 |  |
| COc1ccccc1N1CCN(CCNC(=O)c2cc(Br)c3ccccc3c2OC)CC1 [4-Bromo-1-methoxy-naphthalene-2-carboxylic acid {2-[4-(2-methoxy-phenyl)-piperazin-1-yl]-ethyl}-amide] | 6.52 | 7.12 |  |
| COc1c(C(=O)NCCN2CCN(c3ccc(Cl)cc3)CC2)cc(Br)c2ccccc12 [4-Bromo-1-methoxy-naphthalene-2-carboxylic acid {2-[4-(4-chloro-phenyl)-piperazin-1-yl]-ethyl}-amide] |  | 6.88 |  |
| COc1c(C(=O)NCCN2CCN(c3ccccc3)CC2)ccc2ccccc12 [1-Methoxy-naphthalene-2-carboxylic acid [2-(4-phenyl-piperazin-1-yl)-ethyl]-amide] | 5.15 | 6.57 |  |
| O=C(NCCN1CCN(c2ccccc2)CC1)c1cc(Br)c2ccccc2c1 [4-Bromo-naphthalene-2-carboxylic acid [2-(4-phenyl-piperazin-1-yl)-ethyl]-amide] | < 5.00 | < 5.00 |  |
| COc1c(C(=O)NCCN2CCN(c3ccccc3C)CC2)cc(Br)c2ccccc12 [4-Bromo-1-methoxy-naphthalene-2-carboxylic acid [2-(4-o-tolyl-piperazin-1-yl)-ethyl]-amide] | 6.32 | 7.18 | < 6.00 |
| COc1c(C(=O)NCCN2CCN(c3cccc([N+](=O)[O-])c3)CC2)cc(Br)c2ccccc12 [4-Bromo-1-methoxy-naphthalene-2-carboxylic acid {2-[4-(3-nitro-phenyl)-piperazin-1-yl]-ethyl}-amide] | 5.89 | 6.19 |  |
| COc1ccc(N2CCN(CCNC(=O)c3cc(Br)c4ccccc4c3OC)CC2)cc1 [4-Bromo-1-methoxy-naphthalene-2-carboxylic acid {2-[4-(4-methoxy-phenyl)-piperazin-1-yl]-ethyl}-amide] | 5.24 | 6.14 |  |
| CCOc1c(C(=O)NCCN2CCN(c3ccccc3)CC2)cc(Br)c2ccccc12 [4-Bromo-1-ethoxy-naphthalene-2-carboxylic acid [2-(4-phenyl-piperazin-1-yl)-ethyl]-amide] | < 5.00 | 6.57 |  |
| COc1c(C(=O)NCCN2CCN(c3cccc(Cl)c3)CC2)cc(Br)c2ccccc12 [4-Bromo-1-methoxy-naphthalene-2-carboxylic acid {2-[4-(3-chloro-phenyl)-piperazin-1-yl]-ethyl}-amide] | 6.15 |  | 7.55 |
| COc1cccc(N2CCN(CCNC(=O)c3cc(Br)c4ccccc4c3OC)CC2)c1 [4-Bromo-1-methoxy-naphthalene-2-carboxylic acid {2-[4-(3-methoxy-phenyl)-piperazin-1-yl]-ethyl}-amide] | 5.89 | 6.19 |  |
| COc1c(C(=O)NCCN2CCN(c3ccc(C)cc3)CC2)cc(Br)c2ccccc12 [4-Bromo-1-methoxy-naphthalene-2-carboxylic acid [2-(4-p-tolyl-piperazin-1-yl)-ethyl]-amide] | 6.00 | 6.59 |  |
| COc1c(C(=O)NCCN2CCN(c3cccc(C)c3C)CC2)cc(Br)c2ccccc12 [4-Bromo-1-methoxy-naphthalene-2-carboxylic acid {2-[4-(2,3-dimethyl-phenyl)-piperazin-1-yl]-ethyl}-amide] | 5.93 |  |  |
| COc1c(C(=O)NCCN2CCN(c3ccccc3[N+](=O)[O-])CC2)cc(Br)c2ccccc12 [4-Bromo-1-methoxy-naphthalene-2-carboxylic acid {2-[4-(2-nitro-phenyl)-piperazin-1-yl]-ethyl}-amide] | 6.82 | 7.62 |  |
| COc1c(C(=O)NCCN2CCN(c3ccccc3)CC2)cc(Br)c2ccccc12 [4-Bromo-1-methoxy-naphthalene-2-carboxylic acid [2-(4-phenyl-piperazin-1-yl)-ethyl]-amide] | 5.72 | 7.62 |  |
| COc1c(C(=O)NCCN2CCN(c3cccc(C)c3)CC2)cc(Br)c2ccccc12 [4-Bromo-1-methoxy-naphthalene-2-carboxylic acid [2-(4-m-tolyl-piperazin-1-yl)-ethyl]-amide] | 5.92 | 6.47 |  |
| COc1c(C(=O)NCCN2CCN(c3ccccc3Cl)CC2)cc(Br)c2ccccc12 [4-Bromo-1-methoxy-naphthalene-2-carboxylic acid {2-[4-(2-chloro-phenyl)-piperazin-1-yl]-ethyl}-amide] | 6.29 | 7.41 | 7.08 |
| COc1c(C(=O)NCCN2CCN(c3ccc([N+](=O)[O-])cc3)CC2)cc(Br)c2ccccc12 [4-Bromo-1-methoxy-naphthalene-2-carboxylic acid {2-[4-(4-nitro-phenyl)-piperazin-1-yl]-ethyl}-amide] | 5.24 | 6.14 |  |
| COc1c(C(=O)NCCN2CCN(c3ccccc3)CC2)cc(Cl)c2ccccc12 [4-Chloro-1-methoxy-naphthalene-2-carboxylic acid [2-(4-phenyl-piperazin-1-yl)-ethyl]-amide] | 5.60 | 7.26 |  |
